Laboratory results taken from patent US7666890B2, “Synthesis and herbicidal activity of 1- (2-substituted benzo[d]thiazol-5-yl)-1H-1,2,4-triazol-5(4H)-one derivatives” (Huazhong Normal University, priority 2007, dated 2010).

Tests used:
Test in all cases: Test of herbicidal activities (greenhouse pot method)
Format in all cases: in vivo
Details in all cases: single dose 300 g ai./h, treated before/after germination, 15 days later, greenhouse pot
[1] = test system: Echinochloa crusgalli
Experimental: (§1) Garden soil was collected from regions where no pesticide is used and mixed uniformly with mountain soil and organic humus soil at a volume ratio of 1:1:1.
(§2) Multiple flowerpots each having a diameter of 9.5 cm and a depth of 8 cm were filled with the soil mixture to 3/4 volume. After water was added to the soil and the soil was completely wet, seeds of three grass weeds and three broadleaf weeds were inserted into the flowerpots (10-15 seeds for each weed). After seeding, the seeds were covered with fine oil mixed with sand and having a thickness of 1-3 cm. After the soil absorbed enough water and became saturated, excess water at the bottom of the flowerpot was drained, and the seeds were placed in a greenhouse for growth.
(§3) The weeds were watered every day so as to keep relative humidity of the soil at approximately 80%, growing temperature of 15-30° C., and air humidity above 50%. As the grass weeds grew to a 2-leaf stage and the broadleaf weeds was in a leaf period, spraying operation […] was performed on the stems and leafs. Planting before germination was performed before spraying. Soil processing was performed before the seeds of the weeds emerged.
(§4) Six target weeds comprising three grass weeds: Echinochloa crusgalli, Digiatria sanguinalis, Setaria viridis, along with three broadleaf weeds: Brassica juncea, Amaranthus retroflexus, Chenopodium album were treated before/after germination using a so-called “greenhouse pot” method with a single dose. A treating dose was 300 g ai./h. The process was repeated three times, and a blank control was used.
(§5) A 3WPSHZ-500 type automatic spraying tower with a spraying area of 0.132 m^2, a spray volume of 10 mL, working pressure of 0.2 MPa, and a liquid volume of 40% of maximum was used. After treatment, the weeds were placed in a greenhouse at a temperature of 15-30° C. Reaction symptoms of the weeds were regularly observed, and 15 days later, five reaction levels were determined according to the following inhibition intervals: 90≦A≦100%; 80≦B<90%, 60≦C<80%; 50≦D<60%, E<50%.

[2] = test system: Brassica juncea
Experimental: as §1, §2, §3, §4, §5

[3] = test system: Chenopodium album
Experimental: as §1, §2, §3, §4, §5

[4] = test system: Setaria viridis
Experimental: as §1, §2, §3, §4, §5

[5] = test system: Digiatria sanguinalis
Experimental: as §1, §2, §3, §4, §5

[6] = test system: Amaranthus retroflexus
Experimental: as §1, §2, §3, §4, §5

SMILES | Herbicidal activity Echinochloa crusgalli (inhibition level) [1] | Herbicidal activity Brassica juncea (inhibition level) [2] | Herbicidal activity Chenopodium album (inhibition level) [3] | Herbicidal activity Setaria viridis (inhibition level) [4] | Herbicidal activity Digiatria sanguinalis (inhibition level) [5] | Herbicidal activity Amaranthus retroflexus (inhibition level) [6]
CCCCCC[S+]([O-])c1nc2cc(-n3nc(C)n(C(F)F)c3=O)c(F)cc2s1 (stereo not drawn) [Compound 112] | B (80 ≦ B < 90%) | C (60 ≦ C < 80%) | B (80 ≦ B < 90%) | B (80 ≦ B < 90%) | A (90 ≦ A ≦ 100%) | B (80 ≦ B < 90%)
CCC[S+]([O-])c1nc2cc(-n3nc(C)n(C(F)F)c3=O)c(F)cc2s1 (stereo not drawn) [Compound 121] | E (E < 50%) | C (60 ≦ C < 80%) | A (90 ≦ A ≦ 100%) | D (50 ≦ D < 60%) | C (60 ≦ C < 80%) | D (50 ≦ D < 60%)
CCCCCCSc1nc2cc(-n3nc(C)n(C(F)F)c3=O)c(Cl)cc2s1 [Compound 85] | B (80 ≦ B < 90%) | B (80 ≦ B < 90%) | B (80 ≦ B < 90%) | A (90 ≦ A ≦ 100%) | A (90 ≦ A ≦ 100%) | B (80 ≦ B < 90%)
CC[S+]([O-])c1nc2cc(-n3nc(C)n(C(F)F)c3=O)c(Br)cc2s1 (stereo not drawn) [Compound 109] | A (90 ≦ A ≦ 100%) | A (90 ≦ A ≦ 100%) | A (90 ≦ A ≦ 100%) | B (80 ≦ B < 90%) | B (80 ≦ B < 90%) | B (80 ≦ B < 90%)
C=CCSc1nc2cc(-n3nc(C)n(C(F)F)c3=O)c(Cl)cc2s1 [Compound 99] | A (90 ≦ A ≦ 100%) | B (80 ≦ B < 90%) | C (60 ≦ C < 80%) | B (80 ≦ B < 90%) | B (80 ≦ B < 90%) | B (80 ≦ B < 90%)
Cc1nn(-c2cc3nc(SCc4cccs4)sc3cc2F)c(=O)n1C(F)F [Compound 73] | B (80 ≦ B < 90%) | B (80 ≦ B < 90%) | A (90 ≦ A ≦ 100%) | B (80 ≦ B < 90%) | A (90 ≦ A ≦ 100%) | A (90 ≦ A ≦ 100%)
Cc1nn(-c2cc3nc(SCc4ccccc4F)sc3cc2F)c(=O)n1C(F)F [Compound 18] | C (60 ≦ C < 80%) | B (80 ≦ B < 90%) | C (60 ≦ C < 80%) | B (80 ≦ B < 90%) | A (90 ≦ A ≦ 100%) | A (90 ≦ A ≦ 100%)
Cc1nn(-c2cc3nc(S(C)(=O)=O)sc3cc2F)c(=O)n1C [Compound 35] | C (60 ≦ C < 80%) | D (50 ≦ D < 60%) | C (60 ≦ C < 80%) | A (90 ≦ A ≦ 100%) | A (90 ≦ A ≦ 100%) | B (80 ≦ B < 90%)
CCCCS(=O)(=O)c1nc2cc(-n3nc(C)n(C(F)F)c3=O)c(Cl)cc2s1 [Compound 69] | A (90 ≦ A ≦ 100%) | B (80 ≦ B < 90%) | C (60 ≦ C < 80%) | B (80 ≦ B < 90%) | B (80 ≦ B < 90%) | A (90 ≦ A ≦ 100%)
CCC[S+]([O-])c1nc2cc(-n3nc(C)n(C(F)F)c3=O)c(Br)cc2s1 (stereo not drawn) [Compound 110] | A (90 ≦ A ≦ 100%) | B (80 ≦ B < 90%) | B (80 ≦ B < 90%) | C (60 ≦ C < 80%) | B (80 ≦ B < 90%) | B (80 ≦ B < 90%)
CCCSc1nc2cc(-n3nc(C)n(C(F)F)c3=O)c(Cl)cc2s1 [Compound 100] | B (80 ≦ B < 90%) | A (90 ≦ A ≦ 100%) | A (90 ≦ A ≦ 100%) | C (60 ≦ C < 80%) | B (80 ≦ B < 90%) | A (90 ≦ A ≦ 100%)
Cc1nn(-c2cc3nc([S+]([O-])Cc4cccc(Cl)c4)sc3cc2Cl)c(=O)n1C(F)F (stereo not drawn) [Compound 107] | B (80 ≦ B < 90%) | A (90 ≦ A ≦ 100%) | B (80 ≦ B < 90%) | D (50 ≦ D < 60%) | B (80 ≦ B < 90%) | A (90 ≦ A ≦ 100%)
C=CCSc1nc2cc(-n3nc(C)n(C(F)F)c3=O)c(F)cc2s1 [Compound 94] | A (90 ≦ A ≦ 100%) | B (80 ≦ B < 90%) | B (80 ≦ B < 90%) | A (90 ≦ A ≦ 100%) | A (90 ≦ A ≦ 100%) | B (80 ≦ B < 90%)
